Measurements as given in ChEMBL document CHEMBL1201862, “PubChem BioAssay data set” (2004).
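48-hour exposure; five concentrations; linearly interpolated endpoints. GI50 marks 50% less growth.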 Active and inactive are the calls of the source. Cut-off read from the data, not from the text of the source: active = GI50 up to about 1.1 µM and inactive = higher. Non-standard residues stand in square brackets, D forms with d. Residues, ends and D or L forms follow the SMILES beside them. ξ: configuration not given here. *: point of attachment. NMeY = CN[C@@H](Cc1ccc(O)cc1)C(=O)O; Cbz = O=C(OCc1ccccc1)*; ξA = CC(N)C(=O)O

Experiments:
Test in all cases: NCI-60 cell line screen, 48 h
SN12C = test system: SN12C
U-251 = test system: U-251
CCRF-CEM = test system: CCRF-CEM
RXF 393 = test system: RXF 393
SF-295 = test system: SF-295
SNB-19 = test system: SNB-19
NCI-H522 = test system: NCI-H522
UO-31 = test system: UO-31
MOLT-4 = test system: MOLT-4
SW-620 = test system: SW-620
EKVX = test system: EKVX
DMS-114 = test system: DMS-114
SK-MEL-2 = test system: SK-MEL-2
Malme-3M = test system: Malme-3M
SK-OV-3 = test system: SK-OV-3
COLO 205 = test system: COLO 205
RPMI-8226 = test system: RPMI-8226
HOP-92 = test system: HOP-92
MDA-MB-435 = test system: MDA-MB-435
MDA-MB-231 = test system: MDA-MB-231

Measured: GI50

C/C(O)=C1\CC2CN3CCc4c([nH]c5ccccc45)C3CC2CC1=O (stereo not given)
inactive: SN12C 71.1 µM | U-251 > 100 µM | CCRF-CEM 29.4 µM | RXF 393 20.9 µM | SF-295 > 100 µM | SNB-19 > 100 µM | NCI-H522 65.6 µM | UO-31 37.9 µM | MOLT-4 21.8 µM | SW-620 38.5 µM | EKVX 37 µM | DMS-114 46.2 µM | SK-MEL-2 43 µM | Malme-3M > 100 µM | SK-OV-3 24.8 µM | COLO 205 > 100 µM

O=C(CC1Sc2ccccc2NC1=O)Nc1cc(Cl)ccc1Cl (stereo not given)
inactive: SN12C > 100 µM | U-251 49.9 µM | CCRF-CEM 31.2 µM | RXF 393 > 100 µM | SF-295 > 100 µM | SNB-19 > 100 µM | UO-31 > 100 µM | MOLT-4 29.8 µM | SW-620 > 100 µM | EKVX > 100 µM | DMS-114 > 100 µM | RPMI-8226 > 100 µM | HOP-92 > 100 µM | SK-MEL-2 > 100 µM | Malme-3M > 100 µM

N#C/N=C1\NC(Cc2ccccc2)C(=O)N1CCc1c[nH]c2ccccc12 (stereo not given)
inactive: SN12C 29.9 µM | CCRF-CEM 25.5 µM | RXF 393 > 10 µM | SF-295 32.4 µM | SNB-19 37 µM | UO-31 24 µM | MOLT-4 18.4 µM | SW-620 34.9 µM | EKVX 22.4 µM | DMS-114 29.3 µM | RPMI-8226 25.6 µM | SK-OV-3 26.3 µM | COLO 205 19.7 µM

COc1ccc([C@H](NC(=O)c2ccccc2)[C@@H](O)C(=O)O[C@H]2C[C@@]3(O)C(OC(=O)c4ccccc4)C4[C@](C)(C(=O)[C@H](OC(C)=O)C(=C2C)C3(C)C)[C@@H](O)C[C@H]2OC[C@@]42OC(C)=O)cc1 (stereo not given in full)
inactive: MDA-MB-231 > 10 µM
active: SN12C 0.00284 µM | U-251 0.00695 µM | CCRF-CEM 0.00184 µM | RXF 393 0.0412 µM | MDA-MB-435 < 0.001 µM | SF-295 0.0783 µM | SNB-19 0.0368 µM | NCI-H522 0.00227 µM | UO-31 0.126 µM | MOLT-4 0.00286 µM | SW-620 0.00508 µM | EKVX 0.22 µM | RPMI-8226 < 0.001 µM | HOP-92 0.0586 µM | SK-MEL-2 0.00705 µM | Malme-3M 0.0028 µM | SK-OV-3 0.00117 µM | COLO 205 0.00274 µM

COc1ccc(CNc2cc(=O)n(C)c(=O)[nH]2)cc1
inactive: SN12C > 100 µM | U-251 > 100 µM | CCRF-CEM > 100 µM | RXF 393 35.6 µM | MDA-MB-435 > 100 µM | SF-295 > 100 µM | SNB-19 > 100 µM | NCI-H522 > 100 µM | MDA-MB-231 > 100 µM | UO-31 > 100 µM | MOLT-4 > 100 µM | SW-620 > 100 µM | EKVX > 100 µM | RPMI-8226 > 100 µM | HOP-92 > 100 µM | SK-MEL-2 > 100 µM | Malme-3M > 100 µM | SK-OV-3 > 100 µM | COLO 205 > 100 µM

CCCCCCCCCCCCCCCCCCNc1ccn(C2OC(CO)C(OP(=O)(O)OCC(COP(=O)(O)OCC3OC(n4cc(F)c(NCCCCCCCCCCCCCCCCCC)nc4=O)CC3O)OC(=O)CCCCCCCCCCCCCCC)C2O)c(=O)n1 (stereo not given)
inactive: SN12C > 100 µM | U-251 > 100 µM | CCRF-CEM 95.3 µM | RXF 393 > 100 µM | MDA-MB-435 > 100 µM | SF-295 > 100 µM | SNB-19 > 100 µM | NCI-H522 > 100 µM | MDA-MB-231 > 100 µM | UO-31 > 100 µM | MOLT-4 > 100 µM | SW-620 > 100 µM | EKVX > 100 µM | RPMI-8226 > 100 µM | HOP-92 > 100 µM | SK-MEL-2 > 100 µM | Malme-3M > 100 µM | SK-OV-3 > 100 µM | COLO 205 > 100 µM

O=C(c1cccs1)N1CCc2ccccc2C1
inactive: SN12C > 100 µM | U-251 > 100 µM | CCRF-CEM 40.4 µM | RXF 393 > 100 µM | MDA-MB-435 33.3 µM | SF-295 > 100 µM | SNB-19 > 100 µM | NCI-H522 > 100 µM | MDA-MB-231 > 100 µM | UO-31 > 100 µM | MOLT-4 > 100 µM | SW-620 > 100 µM | EKVX 97.1 µM | RPMI-8226 85.9 µM | HOP-92 26.6 µM | SK-MEL-2 > 100 µM | Malme-3M > 100 µM | SK-OV-3 > 100 µM | COLO 205 > 100 µM

CC(C)(C)N/N=C(\C(=O)Nc1nnc(S)[nH]1)C1C(=O)Nc2ccccc2[S+]1[O-] (stereo not given)
inactive: SN12C > 100 µM | U-251 > 100 µM | CCRF-CEM > 100 µM | RXF 393 > 100 µM | SF-295 > 100 µM | SNB-19 > 100 µM | NCI-H522 > 100 µM | UO-31 > 100 µM | MOLT-4 > 100 µM | SW-620 > 100 µM | EKVX > 100 µM | DMS-114 > 100 µM | RPMI-8226 > 100 µM | SK-MEL-2 > 100 µM | Malme-3M > 100 µM | SK-OV-3 > 100 µM | COLO 205 > 100 µM

O=[N+]([O-])c1ccc(Oc2c(Cl)cc(S(=O)(=O)N/C(=N\O)Nc3ccc(Cl)cc3)cc2Cl)cc1
inactive: SN12C 12.5 µM | U-251 13 µM | CCRF-CEM 8.22 µM | RXF 393 13.5 µM | MDA-MB-435 13.9 µM | SF-295 13.1 µM | SNB-19 15.2 µM | NCI-H522 3.15 µM | MDA-MB-231 11 µM | UO-31 5.79 µM | MOLT-4 6.11 µM | SW-620 13.1 µM | EKVX 11.9 µM | RPMI-8226 5.38 µM | HOP-92 2.31 µM | SK-MEL-2 10.9 µM | Malme-3M 14.8 µM | SK-OV-3 15.7 µM | COLO 205 15.1 µM

COc1ccc(C[C@@H](C(=O)NCC(N)=O)N(C)C(=O)[C@@H]2CCCN2C(=O)[C@H](CC(C)C)NC(=O)C(C)NC(=O)OCc2ccccc2)cc1 (stereo not given in full) (Cbz-[ξA]LP[NMeY](Me)G-NH2)
inactive: SN12C > 100 µM | U-251 > 100 µM | CCRF-CEM > 100 µM | RXF 393 > 100 µM | MDA-MB-435 > 100 µM | SF-295 > 100 µM | SNB-19 > 100 µM | NCI-H522 > 100 µM | MDA-MB-231 > 100 µM | UO-31 > 100 µM | MOLT-4 > 100 µM | SW-620 > 100 µM | EKVX > 100 µM | RPMI-8226 > 100 µM | HOP-92 > 100 µM | SK-MEL-2 > 100 µM | Malme-3M > 100 µM | SK-OV-3 > 100 µM | COLO 205 > 100 µM

CC(C)(C)OC(=O)N1CC(CCl)c2ccc(O)cc21 (stereo not given)
inactive: SN12C 3.23 µM | U-251 3.15 µM | CCRF-CEM 1.29 µM | MDA-MB-435 1.99 µM | SF-295 3.65 µM | SNB-19 3.32 µM | MDA-MB-231 2.53 µM | UO-31 2.29 µM | MOLT-4 1.3 µM | SW-620 2.59 µM | EKVX 2.75 µM | RPMI-8226 1.75 µM | HOP-92 2.42 µM | SK-MEL-2 1.7 µM | Malme-3M 1.64 µM | SK-OV-3 5.05 µM | COLO 205 1.81 µM
active: RXF 393 0.693 µM | NCI-H522 0.612 µM

Cc1csc2c(P(=O)(OC(C)C)OC(C)C)c(-c3ccccc3)cn12
inactive: SN12C 17.1 µM | U-251 16 µM | CCRF-CEM 16.7 µM | RXF 393 17.5 µM | MDA-MB-435 21.5 µM | SF-295 16.9 µM | SNB-19 15.1 µM | NCI-H522 15.3 µM | MDA-MB-231 17 µM | UO-31 15.3 µM | MOLT-4 13 µM | SW-620 18.3 µM | EKVX 17.2 µM | RPMI-8226 16.3 µM | HOP-92 16.7 µM | SK-MEL-2 16 µM | Malme-3M 19.9 µM | SK-OV-3 18.5 µM | COLO 205 18.7 µM

COc1ccc(C2C3CCc4ccccc4C3=NN2S(=O)(=O)c2ccc(/C=C/C(=O)O)cc2)cc1 (stereo not given)
inactive: SN12C 6.25 µM | U-251 3.21 µM | CCRF-CEM 3.46 µM | RXF 393 3.15 µM | SF-295 2.93 µM | SNB-19 7.29 µM | NCI-H522 2.31 µM | MDA-MB-231 4.84 µM | UO-31 5.74 µM | MOLT-4 3.61 µM | SW-620 3.18 µM | EKVX 8.99 µM | RPMI-8226 3.07 µM | HOP-92 11.6 µM | SK-MEL-2 2.71 µM | Malme-3M 2.77 µM | SK-OV-3 1.55 µM | COLO 205 2 µM
active: MDA-MB-435 1.07 µM

Cc1cc(=O)n2nc(CSc3nnc(N)s3)sc2n1
inactive: SN12C > 100 µM | U-251 > 100 µM | CCRF-CEM > 100 µM | RXF 393 > 100 µM | MDA-MB-435 > 100 µM | SF-295 > 100 µM | SNB-19 > 100 µM | NCI-H522 > 100 µM | MDA-MB-231 > 100 µM | UO-31 > 100 µM | MOLT-4 > 100 µM | SW-620 > 100 µM | EKVX > 100 µM | RPMI-8226 > 100 µM | HOP-92 > 100 µM | SK-MEL-2 > 100 µM | Malme-3M > 100 µM | SK-OV-3 > 100 µM | COLO 205 > 100 µM

COC(=O)C(c1n[nH]c2ccccc12)C(C(=O)OC)c1n[nH]c2ccccc12 (stereo not given)
inactive: SN12C 31.1 µM | U-251 > 100 µM | CCRF-CEM 24.5 µM | RXF 393 24.9 µM | SF-295 > 100 µM | SNB-19 > 100 µM | UO-31 > 100 µM | MOLT-4 22.7 µM | SW-620 18.3 µM | EKVX > 100 µM | DMS-114 29.4 µM | RPMI-8226 13.5 µM | Malme-3M 42.7 µM | SK-OV-3 > 100 µM
